{
  "source": "the NIST ThermoML archive (doi:10.1021/je060178m)",
  "key": {"[1]": {"settings": "Crystal; DTA"}, "[2]": {"test": "Molar enthalpy of transition or fusion", "settings": "Crystal; DSC"}},
  "note": "Numbers after ± are expanded uncertainties.",
  "data": [
    {"smiles": "NC(=O)c1ccccc1O", "note": "[2-hydroxybenzamide]", "values": [
      {"measurement": "Normal melting temperature", "setting": "[1]", "value": "138.70 ± 1.1", "unit": "°C"},
      {"measurement": "Molar enthalpy of transition or fusion", "setting": "[2]", "value": "29 ± 0.8", "unit": "kJ/mol"}
    ]}
  ]
}
